Results from PubChem BioAssay (NCI).
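Cells were grown in 96-well plates and exposed to each compound for 48 hours at five concentrations; endpoints were interpolated linearly between bracketing concentrations, or set to the highest concentration if not reached. At the GI50, growth is halved. TGI is the concentration that stops growth completely.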

How the values were obtained:
Assay in all cases: growth of human tumour cells (NCI), 48 h
[1] = tested on: OVCAR-5 ovarian
[2] = tested on: BT-549 breast
[3] = tested on: CCRF-CEM leukemia
[4] = tested on: HT29 colon
[5] = tested on: 786-0 renal
[6] = tested on: SF-268 CNS
[7] = tested on: OVCAR-8 ovarian
[8] = tested on: MALME-3M melanoma

| Compound | GI50 [1] [µM] | TGI [1] [µM] | GI50 [2] [µM] | TGI [2] [µM] | GI50 [3] [µM] | TGI [3] [µM] | GI50 [4] [µM] | TGI [4] [µM] | GI50 [5] [µM] | TGI [5] [µM] | GI50 [6] [µM] | TGI [6] [µM] | GI50 [7] [µM] | TGI [7] [µM] | GI50 [8] [µM] | TGI [8] [µM] |
| --- | --- | --- | --- | --- | --- | --- | --- | --- | --- | --- | --- | --- | --- | --- | --- | --- |
| COC(=O)c1cc2c(cc1Cl)SC1=NN(C)S(=O)N1S2(=O)=O (centres undefined) | > 100 | > 100 | > 100 | > 100 | > 100 | > 100 | > 100 | > 100 | > 100 | > 100 | > 100 | > 100 | > 100 | > 100 | > 100 | > 100 |
| O=C(Nc1ccc(-n2ccc3c(NC(=O)c4ccccc4)ncnc32)cc1)c1cccc(C(F)(F)F)c1 | 6.18 | 31.7 | 9.57 | 30 | 0.346 | 25.2 | 0.457 | 15.7 | 2.91 | 21.9 | 1.16 | 24.5 | 1.16 | 29.2 | 9.75 | 26.1 |
| [O-][N+]1(CC[N+]2([O-])CCCCC2)CCCCC1 | – | > 100 | – | > 100 | – | > 100 | – | > 100 | – | > 100 | – | > 100 | – | > 100 | – | > 100 |
| CCCCCCCC(=O)OCCCC1[C@]2(C)CC[C@@]3(C)C([C@H](C)CCC=C(C)C)CC[C@]3(C)C2CC[C@]12OC2(C)C (some centres undefined) | > 100 | > 100 | 88.6 | > 100 | 28.4 | 69.1 | 42.3 | > 100 | > 100 | > 100 | 27.2 | 81.8 | 64 | > 100 | > 100 | > 100 |
| CCN1CCN(c2cc(C)nc(N(CCCNc3ccnc4cc(Cl)ccc34)Cc3ccc4c(c3)OCO4)n2)CC1 | 5.32 | > 100 | 2.72 | 8.5 | 2.38 | 7.43 | 1.95 | 5.79 | 1.81 | 3.8 | 2.57 | 7.9 | 3.19 | 14.4 | 1.87 | 3.5 |
| O=C(/C=C/c1ccc(C(F)(F)F)cc1)Nc1ccc(C=C2c3ccccc3C(=O)c3ccccc32)cc1 | 43.6 | > 100 | 3.33 | 48 | 3.4 | > 100 | 4.56 | > 100 | 13.6 | > 100 | 14.3 | > 100 | 15.4 | > 100 | 8.91 | > 100 |
| O=S1(=O)N(Cc2ccccc2)[C@@H](Cc2ccccc2)[C@H](O)[C@H](O)[C@H](Cc2ccccc2)N1Cc1ccccc1 | 3.57 | 9.1 | 2.65 | 5.53 | 5.96 | > 20 | 2.63 | 5.64 | 3.24 | 6.86 | 3.44 | 8.03 | 4.2 | 11.2 | 2.75 | 6.37 |
| O=C(Nc1ccc(F)cc1F)c1cc(Cl)ccc1O | 4.4 | > 100 | 0.62 | 3.31 | 3.04 | 18.1 | 3.62 | > 100 | 2.71 | 7.69 | 1.3 | 11.6 | 2.38 | 13.3 | 0.782 | 4.76 |
| O=c1c2cc(-c3ccccc3)sc2ncn1Cc1ccc(Cl)c(Cl)c1 | 5.46 | > 100 | 21 | 60.4 | – | – | 67.7 | > 100 | 14.2 | 43.3 | 26 | 80.3 | 18.6 | > 100 | – | – |
| C[Si](C)(c1ccc(C(=O)O)cc1)c1ccc(C(=O)O)cc1 | – | > 100 | – | > 100 | – | > 100 | – | > 100 | – | > 100 | – | > 100 | – | > 100 | – | > 100 |
| Cc1cc(Nc2nc(C(=O)Nc3ccccc3)nc3ccccc23)n[nH]1 | > 25 | > 25 | 15.7 | > 25 | 4 | > 25 | 17.6 | > 25 | 10.1 | > 25 | 9.25 | > 25 | 14.5 | > 25 | 13.8 | > 25 |
| CCCn1cnc2c(SCC(=O)O)nc(N)nc21 | – | > 100 | – | > 100 | – | > 100 | – | > 100 | – | > 100 | – | > 100 | – | > 100 | – | > 100 |
| O=[N+]([O-])c1cccc(-c2nc(-c3ccccc3)c(-c3ccccc3)[nH]2)c1 | – | > 100 | – | – | – | > 100 | – | – | – | > 100 | – | > 100 | – | > 100 | – | > 100 |
| CCOc1ccc2c(c1)C(=O)c1c-2n(CCCBr)c(=O)c2cc([N+](=O)[O-])ccc12 | 59.4 | > 100 | 28.8 | > 100 | 3.74 | > 100 | > 100 | > 100 | 13.6 | > 100 | 5.1 | > 100 | 4.8 | > 100 | 40.7 | > 100 |
| CCCCCN(CCCCC)CC(O)c1cc(Cl)ccc1OC (centres undefined) | 10.4 | 23.8 | 15.9 | 38.3 | 11.3 | 36 | 0.683 | 12 | 13 | 27.4 | 11.4 | 24.4 | 11.4 | 25.7 | 6.29 | 21.3 |
| CC(C)c1nc(N(C)S(C)(=O)=O)nc(-c2ccc(F)cc2)c1/C=C/[C@@H](O)C[C@@H](O)CC(=O)O | > 100 | > 100 | > 100 | > 100 | > 100 | > 100 | > 100 | > 100 | > 100 | > 100 | 28.3 | > 100 | > 85.4 | > 100 | > 100 | > 100 |
| NS(=O)(=O)c1ccc(N=Nc2c(O)[nH]c3ccc(C(=O)NCc4ccncc4)cc23)cc1 | > 25 | > 25 | > 9.38 | > 25 | > 25 | > 25 | 24.6 | > 25 | > 25 | > 25 | > 25 | > 25 | > 25 | > 25 | > 25 | > 25 |

| Compound | GI50 [1] [µM] | TGI [1] [µM] | GI50 [2] [µM] | TGI [2] [µM] | GI50 [3] [µM] | TGI [3] [µM] | GI50 [4] [µM] | TGI [4] [µM] | GI50 [5] [µM] | TGI [5] [µM] | GI50 [6] [µM] | TGI [6] [µM] | GI50 [7] [µM] | TGI [7] [µM] | GI50 [8] [µM] | TGI [8] [µM] |
| --- | --- | --- | --- | --- | --- | --- | --- | --- | --- | --- | --- | --- | --- | --- | --- | --- |
| CN(C)CCNC(=O)c1ccc(-c2nc3ccc4[nH]ncc4c3c3c2C2CCC3C2)cc1 (centres undefined) | 3.01 | 9.85 | 1.25 | 2.93 | 1.01 | 10.1 | 1.84 | 13 | 0.882 | 4.92 | 0.967 | 3.3 | 1.4 | 9.81 | 1.67 | 3.96 |
| CCC(C)Oc1nc2c(c(=O)n(C)c(=O)n2C)n1C (centres undefined) | > 100 | > 100 | > 100 | > 100 | > 100 | > 100 | > 100 | > 100 | > 100 | > 100 | > 100 | > 100 | > 100 | > 100 | > 100 | > 100 |
| c1cc(-c2nnc(SSc3ncnc4nc[nH]c34)o2)ccn1 | 3.1 | > 100 | 9.47 | > 100 | 1.24 | > 100 | 2.42 | > 100 | 0.986 | > 100 | 2.18 | > 100 | 3.26 | > 100 | 2.08 | > 100 |
| O=[N+]([O-])c1nccn1CC(O)CN1CCCCC1 (centres undefined) | – | > 100 | – | > 100 | – | > 100 | – | > 100 | – | > 100 | – | > 100 | – | > 100 | – | > 100 |
| CC[C@@]1(OC(=O)CN)C(=O)OCc2c1cc1n(c2=O)Cc2c-1nc1cc3c(cc1c2CCl)OCO3 | 1.03 | 13 | 0.0918 | 2.54 | < 0.01 | > 100 | 0.052 | 1.22 | 0.0102 | > 33.8 | < 0.01 | 0.516 | < 0.0105 | 0.354 | 0.0501 | 4.44 |
| CCc1ccccc1NC(=O)/C=C/c1ccccc1 | – | > 100 | – | > 100 | – | > 100 | – | > 100 | – | > 100 | – | > 100 | – | > 100 | – | > 100 |
| COC(=O)C(CCC(=O)CCl)N1C(=O)c2ccccc2C1=O (centres undefined) | – | 28.4 | – | 21.8 | – | 6.34 | – | 27.6 | – | 15.2 | – | 28.4 | – | 19 | – | 11.9 |
| CC1CN(S(=O)(=O)c2oc(-c3ccc(Cl)cc3)nc2C#N)CC(C)O1 (centres undefined) | 2.07 | 4.44 | 1.97 | 4.49 | 0.505 | 4.24 | 2.06 | 4.11 | 1.62 | 3.3 | 1.93 | 4.14 | 3.19 | 21.2 | 1.57 | 2.96 |
| CN1CCN(CCOc2ccc(-c3cnc4c(-c5cccc(F)c5)cnn4c3)cc2)CC1 | 1.79 | 3.55 | 3.51 | 14.1 | 2.11 | 5.23 | 1.51 | 3.32 | 1.79 | 3.42 | 1.99 | 4.79 | 2.45 | 7.12 | 1.66 | 3.23 |
| NCCCCC1NC(=O)C(CC(=O)O)NC(=O)CNC(=O)C(CCCN=C(N)N)NC(=O)C(N)CSSCC(C(=O)O)NC(=O)C(CC(=O)O)NC(=O)C2CCCN2C(=O)CNC1=O (centres undefined) | > 100 | > 100 | > 100 | > 100 | – | – | > 100 | > 100 | > 100 | > 100 | > 100 | > 100 | > 100 | > 100 | > 100 | > 100 |
| NC(=O)[C@@H](CC1CC1)[C@@H](CCC(F)(F)F)C(=O)N[C@H]1N=C(c2ccccc2)c2cccc(F)c2NC1=O | > 100 | > 100 | > 100 | > 100 | – | – | > 100 | > 100 | 17.8 | 53.9 | > 100 | > 100 | > 100 | > 100 | 15.4 | 32.5 |
| COc1ccc(C(=O)c2cc3c(N)c(C(=O)Nc4ccccc4)sc3nc2C)cc1 | 3.1 | > 100 | 38.6 | > 100 | 0.852 | > 100 | 0.562 | > 100 | 4.73 | > 100 | 3.65 | > 100 | 3.71 | > 100 | – | – |
| O=c1cc(-c2ccc(O)cc2)oc2cc(O[C@@H]3O[C@H](CO)[C@@H](O)[C@H](O)[C@H]3O)cc(O)c12 | – | > 100 | – | > 100 | – | > 100 | – | > 100 | – | > 100 | – | > 100 | – | > 100 | – | – |
| COc1ccc(Nc2nc3ccccc3c3occc23)cc1 | 7.95 | 16.6 | 6.08 | 13.5 | – | – | – | – | 5.02 | 10.8 | 6.55 | 14.4 | 8.51 | 22.7 | – | – |
| CN(Cc1ccc(C(F)(F)F)cc1)CC(O)C(=O)Nc1ccc(Cl)cc1 (centres undefined) | 1.43 | 2.86 | 1.46 | 2.88 | – | – | 1.39 | 2.77 | 1.44 | 2.84 | 1.4 | 2.95 | 1.8 | 3.5 | 1.37 | 2.81 |
| COc1ccc2c(c1OC)-c1c(c3ccc([N+](=O)[O-])cc3c(=O)n1CCCBr)C2=O | > 100 | > 100 | 50.8 | > 100 | 16.9 | 80.9 | – | – | 21.6 | 52.1 | – | – | > 100 | > 100 | 79.9 | > 100 |
